Data from PMC12561670, “Isolation of Dual-Active Drugs with Anticancer and Antibacterial Activities That Target Both Tubulin and FtsZ” (Antibiotics, 2025).
≈ marks a conversion by molar mass, not a printed value. Read-outs that look alike come from different tables or passages of the source.

Assays:
FtsZ protein = target: T1, FtsZ protein (Staphylococcus aureus, UniProt P0A031); assay: Affinity assay by SPR technology; assay type: binding, S. aureus
T1 construct: His tag; made in house; host or cells: E. coli BL21(DE3)
T1 sequence (P0A031 whole entry): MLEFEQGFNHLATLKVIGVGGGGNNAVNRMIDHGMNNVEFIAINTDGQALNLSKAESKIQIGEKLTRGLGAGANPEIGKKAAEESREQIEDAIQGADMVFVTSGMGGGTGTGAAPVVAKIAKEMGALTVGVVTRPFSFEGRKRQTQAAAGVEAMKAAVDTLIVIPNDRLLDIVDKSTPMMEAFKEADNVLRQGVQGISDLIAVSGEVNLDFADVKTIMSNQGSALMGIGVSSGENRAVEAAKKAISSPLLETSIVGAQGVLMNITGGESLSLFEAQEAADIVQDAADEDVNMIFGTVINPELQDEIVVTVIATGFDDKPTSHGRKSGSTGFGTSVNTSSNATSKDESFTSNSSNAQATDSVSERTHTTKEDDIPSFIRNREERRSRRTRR
Method: FtsZ Pre-Enrichment: FtsZ purified protein was dissolved in deionized water and prepared into a 1 g/L protein stock solution. Afterwards, protein concentration was diluted to 50 mg/L, respectively, using four different pH acetate buffer solutions (pH 4.0, 4.5, 5.0, 5.5). Subsequently, samples were injected, and the response values of protein FtsZ under different pH conditions were detected using the Biacore pre-enrichment system to determine the optimal protein coupling conditions.
FtsZ Coupling: Before coupling, the CM5 chip was first activated by EDC/NHS solution for 7 min; then, protein coupling was carried out, with a coupling time of 10 min and a protein flow rate of 10 μL/min; finally, the unreacted active sites on the chip were blocked by ethanolamine for 7 min.
The compounds were dissolved in DMSO, and then diluted to 50 μM with PBS (final concentration of DMSO was 5%). The mobile phase was a PBS solution containing 5% DMSO. The response value of the samples flowing through the surface of the FtsZ protein was analyzed by the Biacore T200 system. The monomer compounds with a higher response value to FtsZ (higher than or equal to the positive control) were screened as candidate compounds.
The concentration of candidate compounds was diluted by gradient with a double ratio, with concentration ranging from 0 to 64 μM (the final concentration of DMSO was 5%). Then, the binding response value was obtained. Kinetic curves were drawn according to the dose–effect relationship between the response value and the concentration of candidate compounds, and the binding specificity of candidate compounds and FtsZ was determined according to the curve fitting. Thus, small molecular monomers that can bind specifically to the FtsZ protein were found.

B. subtilis = assay: Phase-contrast microscopy, cell division inhibition; assay type: cell-based; conditions: 64 μM, 4 h
Method: Cell Division Inhibitory Screening Assay Cell division inhibitory activity of compounds was conducted as below. […] Afterwards, 1 mL of the sample was centrifuged at 15,000× g for 3 min at room temperature, and the bacterial pellets were washed with 1 mL of PBS before re-centrifugation. The final bacterial pellets obtained were resuspended in 5 mL PBS. 20 μL of bacterial suspension was transferred to slides for microscopy. Cell morphology was estimated by using the phase-contrast method of Olympus IX71 microscopy (Olympus Corporation, Tokyo, Japan) with 400× magnification.

S. aureus (ATCC 6538) = assay: MIC, broth microdilution; assay type: cell-based; conditions: Staphylococcus aureus, ATCC6538; broth microdilution, 18 h, 37 °C; read-out: MIC S. aureus (ATCC 6538)
HepG2 = assay: Antiproliferative activity, CCK8; assay type: cell-based; conditions: Homo sapiens, HepG2, 48 h, read-out: cell viability HepG2
Method: (§1) Antiproliferative activities of compounds were detected by employing the CCK8 method. HepG2, MCF-7, and Hela cells were cultured to log phase in DMEM medium supplemented with 10% fetal bovine serum. Cells were diluted to 2 × 10^4 cells/mL, and 100 µL of the obtained suspension was seeded in each well of the 96-well microplates, which were then cultured at 37 °C overnight. Subsequently, cells were treated with compounds at different concentrations. After co-culturing for 48 h, wells were washed with PBS three times and filled with 100 μL DMEM complete medium, which contained CCK8. After culturing for 2 h at 37 °C, the absorbance of measured and recorded on an ELISA reader (BioTek-Synergy 4, Winooski, VT, USA) at a test wavelength of 450 nm. Three replicate wells were employed for each drug concentration, and each assay was conducted at least three times.

MCF-7 = assay: Antiproliferative activity, CCK8; assay type: cell-based; conditions: Homo sapiens
Method: as §1

Hela = assay: Antiproliferative activity, CCK8; assay type: cell-based; conditions: Homo sapiens
Method: as §1

E. coli = assay: In vivo antibacterial activity, mouse peritoneal infection; parameters: species or system CD-1 male mice
Description: SPF grade CD-1 male mice weighing 30 ± 3 g were purchased from Shanghai Slake Experimental Animal Co., Ltd. (Shanghai, China). […] Immediately following this, the mice were intraperitoneally injected with the test compounds. Each experimental group consisted of five mice, with each compound being tested at two distinct concentration gradients (determined based on the minimum inhibitory concentration, MIC). A separate group received physiological saline as a negative control. The subsequent assessment focused on evaluating the therapeutic potential of these drugs against bacterial infections. On the first and third days post-administration, 2 mL of sterile physiological saline was injected into the peritoneal cavity of each mouse. After a gentle two-minute dilution under sterile conditions, the abdominal fluid was extracted for bacterial enumeration using the plate counting method. Furthermore, the clinical manifestations of each mouse group, encompassing mental status, appetite, and other relevant parameters, were meticulously observed over a seven-day period. On the seventh day, the mice were euthanized, and a thorough macroscopic examination was conducted to assess the pathological changes in various vital organs.

Cytotoxicity, CCK8 = assay type: cell-based; conditions: human, 12 h
Method: The absorbance of 450 nm was measured in an ELISA reader (BioTek-Synergy 4, USA). Then, cell viability was calculated, and the corresponding images were drawn with GraphPad Prism 9.

E. Coli BL21 (DE3) = assay: Visualization of Z-ring in bacterial cells (GFP-tagged FtsZ); assay type: cell-based; conditions: 64 μM, 4 h
Method: The assay was carried out using a strain of E.coli BL21 (DE3) containing an IPTG-inducible plasmid, which can produce the green fluorescence protein (GFP)-tagged FtsZ to make the Z-ring visible. An overnight culture of E.coli was replated into 1 mL fresh MHB medium and incubated at 37 °C. Until OD600 = 0.3, 40 μM IPTG (Isopropyl β-D-1-thiogalactopyranoside) was added. […] After that, they were centrifuged and re-suspended in PBS, and then observed using the Leica SP-5 laser scanning confocal microscopy. Z-ring analysis was performed by employing LAS-AF-Lite software 2.6.0.

P. aeruginosa (DSM 939) = assay: MIC, broth microdilution; assay type: cell-based; conditions: Pseudomonas aeruginosa, DSM939; broth microdilution, 18 h, 37 °C; read-out: MIC P. aeruginosa (DSM 939)
[1] = MCF7, 48 h, read-out: cell viability MCF-7
[2] = 48 h, read-out: cell viability Hela

Compound: CC(C)(C)c1[nH]cnc1/C=c1\[nH]c(=O)/c(=C/c2ccccc2)[nH]c1=O [Compound 23, Plinabulin]
- Kd (FtsZ protein): 15300 nM
- Chi^2 (FtsZ protein; SPR fit): 0.234
- Rmax (FtsZ protein; SPR, CM5 chip): 11.82 RU
- cell morphology of B. subtilis (elongation) (B. subtilis): the most pronounced effect
- MIC (S. aureus (ATCC 6538)): 8 µM (≈ 2.69 µg/mL)
- viability at 0.1 µM (HepG2): 30.5%
- viability at 1 µM (HepG2): 11.5%
- viability at 0.1 µM (MCF-7; [1]): 27.5%
- viability at 1 µM (MCF-7; [1]): 10%
- IC50 (MCF-7; MCF7, abstract only): 20 nM
- viability at 0.1 µM (Hela; [2]): 26%
- viability at 1 µM (Hela; [2]): 19%
- IC50 (Hela; abstract only): 10 nM
- bacterial count of peritoneal fluid (E. coli; mice i.p. E. coli, i.p. compound, days 1 and 3): substantially mitigated
- clinical presentation of infected mice (E. coli; seven-day observation): exhibited vitality, maintained a healthy appetite
- viability at 100 µM (Cytotoxicity, CCK8; read-out: cell viability HT293 (293T)): 79%
- viability at 100 µM (Cytotoxicity, CCK8; read-out: cell viability LO2): 81%
- Z-ring assembly (E. Coli BL21 (DE3)): disturbed the Z-ring assembly
- MIC (P. aeruginosa (DSM 939)): 32 µM (≈ 10.8 µg/mL)
